Measured values: patent publication US20240156982A1, “METHOD OF FORMING PEPTIDE-COATED NANOPARTICLES” (Research Foundation of the City University of New York, priority 2022, published 2024)
pIC50: −log10 of the molar value.

Legend:
A2780 = test: MTT viability assay; format: cell-based
Experimental: (§1) FIG. 8 depicts a series of graphs showing in vitro viability with RGDFFF (SEQ ID NO: 1)-CA4 NP. Each column represents the mean and standard deviation of N=3 and p<0.005 (HUVEC, OVCAR-3), p<0.04 (TOV-21G, OV-90), p<0.03 (CP70), p<0.02 (A2780), p<0.01 (ES-2), p<0.12 (SKOV-3).
(§2) The biological activity of RGDFFF (SEQ ID NO: 1)-CA4 NPs in cell culture was also evaluated. As determined by HPLC, the CA4 drug payload in the NP was 0.2 wt. %. First, IC50 values were established for the NPs in all cells and subsequently performed MTT viability assays in HUVEC and OvCA cells using the respective IC50 values. The RGDFFF-CA4 NPs were compared to cells only without treatment, free CA4, and empty RGDFFF (SEQ ID NO: 1)-NPs without CA4, as shown in FIG. 8. […] Optical microscopy was used to examine the morphological changes in the cells after incubation with RGDFFF (SEQ ID NO: 1)-CA4 NP. This was done since CA4 is a microtubule depolymerizing agent that disrupts internal cell architecture.

CP70 = test: MTT viability assay; format: cell-based
Experimental: as §1, §2

OV-90 = test: MTT viability assay; format: cell-based
Experimental: as §1, §2

OVCAR-3 = test: MTT viability assay; format: cell-based
Experimental: as §1, §2

TOV-21G = test: MTT viability assay; format: cell-based
Experimental: as §1, §2

SKOV-3 = test: MTT viability assay; format: cell-based
Experimental: as §1, §2

ES-2 = test: MTT viability assay; format: cell-based
Experimental: as §1, §2

HUVEC = test: MTT viability assay; format: cell-based, human
Experimental: as §1, §2

[1] = cited from earlier work

COc1ccc(/C=C\c2cc(OC)c(OC)c(OC)c2)cc1O [CA4, combretastatin A4]
pIC50 (A2780): 8.30
pIC50 (CP70): 8.40
pIC50 (OV-90): 7.00
pIC50 (OVCAR-3): 8.60
pIC50 (TOV-21G): 7.60
pIC50 (SKOV-3): 8.00
pIC50 (ES-2): 8.30
pIC50 (HUVEC): 8.70
solubility in water [1]: not soluble in water
